Measured values: the supplement of paper PMC10307832

What was measured:
Experiment in all cases: relative viability (nuclei count vs DMSO), 5 days (fraction); higher = more cells survive
[1] = compound: COc1cc2c(Oc3ccc4[nH]c(C)cc4c3F)ncnc2cc1OCCCN1CCCC1 [Cediranib] + Cc1nc(NC(=O)N2CCC[C@H]2C(N)=O)sc1-c1ccnc(C(C)(C)C(F)(F)F)c1 [Alpelisib] (partner 2 µM)
Procedure, shortened: (§1)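 Five library-drug doses in √10 steps were combined with a fixed anchor-drug dose, or a single drug was given alone, by pin tool to lung cancer cell lines in 1536-well plates the day after seeding. Nuclei were stained and counted after 5 days. Relative viability is the nuclei count in treated wells over that in vehicle wells, taken as the median of duplicate plates.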

[2] = compound: Nc1ncn([C@H]2C[C@H](O)[C@@H](CO)O2)c(=O)n1 [Decitabine] + CS(=O)(=O)CCNCc1ccc(-c2ccc3ncnc(Nc4ccc(OCc5cccc(F)c5)c(Cl)c4)c3c2)o1 [Lapatinib] (partner 2 µM)
Procedure, shortened: as §1

[3] = compound: Nc1ncn([C@H]2C[C@H](O)[C@@H](CO)O2)c(=O)n1 [Decitabine] + Nc1nc2[nH]cc(CCc3ccc(C(=O)N[C@@H](CCC(=O)O)C(=O)O)cc3)c2c(=O)[nH]1 [Pemetrexed] (partner 0.2 µM)
Procedure, shortened: as §1

[4] = compound: O=C(C[C@H]1NCCC[C@@H]1O)Cn1cnc2cc(Br)c(Cl)cc2c1=O (racemic) [Halofuginone] + O=C(c1cc(Cc2n[nH]c(=O)c3ccccc23)ccc1F)N1CCN(C(=O)C2CC2)CC1 [Olaparib] (partner 8 µM)
Procedure, shortened: as §1

LU99A
relative viability ([1]; first compound 0.04 µM): 0.567
relative viability ([1]; first compound 0.4 µM): 0.489
relative viability ([1]; first compound 1.265 µM): 0.49
relative viability ([1]; first compound 4 µM): 0.589
relative viability ([2]; first compound 0.04 µM): 1.01
relative viability ([2]; first compound 0.1265 µM): 1.08
relative viability ([2]; first compound 0.4 µM): 1.19
relative viability ([2]; first compound 1.265 µM): 0.866
relative viability ([2]; first compound 4 µM): 0.683
relative viability ([3]; first compound 0.04 µM): 0.149
relative viability ([3]; first compound 0.1265 µM): 0.157
relative viability ([3]; first compound 0.4 µM): 0.182
relative viability ([3]; first compound 1.265 µM): 0.202
relative viability ([3]; first compound 4 µM): 0.167
relative viability ([4]; first compound 0.001 µM): 0.268
relative viability ([4]; first compound 0.003162 µM): 0.257
relative viability ([4]; first compound 0.01 µM): 0.25
relative viability ([4]; first compound 0.03162 µM): 0.248
relative viability ([4]; first compound 0.1 µM): 0.286

LXF-289
relative viability ([1]; first compound 0.04 µM): 1.08
relative viability ([1]; first compound 0.1265 µM): 0.971
relative viability ([1]; first compound 0.4 µM): 0.995
relative viability ([1]; first compound 1.265 µM): 1.05
relative viability ([1]; first compound 4 µM): 1.04
relative viability ([2]; first compound 0.04 µM): 0.809
relative viability ([2]; first compound 0.1265 µM): 0.733
relative viability ([2]; first compound 0.4 µM): 0.484
relative viability ([2]; first compound 1.265 µM): 0.402
relative viability ([2]; first compound 4 µM): 0.354
relative viability ([3]; first compound 0.04 µM): 0.69
relative viability ([3]; first compound 0.1265 µM): 0.541
relative viability ([3]; first compound 0.4 µM): 0.423
relative viability ([3]; first compound 1.265 µM): 0.315
relative viability ([3]; first compound 4 µM): 0.297
relative viability ([4]; first compound 0.001 µM): 1.02
relative viability ([4]; first compound 0.003162 µM): 1.03
relative viability ([4]; first compound 0.01 µM): 1.06
relative viability ([4]; first compound 0.03162 µM): 1.07
relative viability ([4]; first compound 0.1 µM): 0.815

NCI-H23
relative viability ([1]; first compound 0.04 µM): 0.625
relative viability ([1]; first compound 0.4 µM): 0.667
relative viability ([1]; first compound 1.265 µM): 0.7
relative viability ([1]; first compound 4 µM): 0.734
relative viability ([2]; first compound 0.04 µM): 0.777
relative viability ([2]; first compound 0.1265 µM): 0.795
relative viability ([2]; first compound 0.4 µM): 0.237
relative viability ([2]; first compound 1.265 µM): 0.235
relative viability ([2]; first compound 4 µM): 0.22
relative viability ([3]; first compound 0.04 µM): 0.572
relative viability ([3]; first compound 0.1265 µM): 0.546
relative viability ([3]; first compound 0.4 µM): 0.322
relative viability ([3]; first compound 1.265 µM): 0.294
relative viability ([3]; first compound 4 µM): 0.272
relative viability ([4]; first compound 0.001 µM): 0.409
relative viability ([4]; first compound 0.003162 µM): 0.291
relative viability ([4]; first compound 0.01 µM): 0.326
relative viability ([4]; first compound 0.03162 µM): 0.271
relative viability ([4]; first compound 0.1 µM): 0.223

NCI-H322M
relative viability ([1]; first compound 0.04 µM): 0.687
relative viability ([1]; first compound 0.1265 µM): 0.84
relative viability ([1]; first compound 0.4 µM): 0.655
relative viability ([1]; first compound 1.265 µM): 0.723
relative viability ([1]; first compound 4 µM): 0.685
relative viability ([2]; first compound 0.04 µM): 0.682
relative viability ([2]; first compound 0.1265 µM): 0.629
relative viability ([2]; first compound 0.4 µM): 0.609
relative viability ([2]; first compound 1.265 µM): 0.434
relative viability ([2]; first compound 4 µM): 0.421
relative viability ([3]; first compound 0.04 µM): 0.549
relative viability ([3]; first compound 0.1265 µM): 0.602
relative viability ([3]; first compound 0.4 µM): 0.534
relative viability ([3]; first compound 1.265 µM): 0.709
relative viability ([3]; first compound 4 µM): 0.53
relative viability ([4]; first compound 0.001 µM): 0.821
relative viability ([4]; first compound 0.003162 µM): 0.535
relative viability ([4]; first compound 0.01 µM): 0.781
relative viability ([4]; first compound 0.03162 µM): 0.624
relative viability ([4]; first compound 0.1 µM): 0.5

NCI-H358
relative viability ([1]; first compound 0.04 µM): 1.04
relative viability ([1]; first compound 0.1265 µM): 1.05
relative viability ([1]; first compound 0.4 µM): 0.745
relative viability ([1]; first compound 1.265 µM): 0.996
relative viability ([1]; first compound 4 µM): 0.926
relative viability ([2]; first compound 0.04 µM): 0.468
relative viability ([2]; first compound 0.1265 µM): 0.512
relative viability ([2]; first compound 0.4 µM): 0.388
relative viability ([2]; first compound 1.265 µM): 0.284
relative viability ([2]; first compound 4 µM): 0.334
relative viability ([3]; first compound 0.04 µM): 0.152
relative viability ([3]; first compound 0.1265 µM): 0.168
relative viability ([3]; first compound 0.4 µM): 0.129
relative viability ([3]; first compound 1.265 µM): 0.131
relative viability ([3]; first compound 4 µM): 0.161
relative viability ([4]; first compound 0.001 µM): 0.653
relative viability ([4]; first compound 0.003162 µM): 0.556
relative viability ([4]; first compound 0.01 µM): 0.459
relative viability ([4]; first compound 0.03162 µM): 0.26
relative viability ([4]; first compound 0.1 µM): 0.124

NCI-H460
relative viability ([1]; first compound 0.04 µM): 0.66
relative viability ([1]; first compound 0.1265 µM): 0.525
relative viability ([1]; first compound 0.4 µM): 0.418
relative viability ([1]; first compound 1.265 µM): 0.526
relative viability ([1]; first compound 4 µM): 0.336
relative viability ([2]; first compound 0.04 µM): 0.902
relative viability ([2]; first compound 0.1265 µM): 1.06
relative viability ([2]; first compound 0.4 µM): 0.277
relative viability ([2]; first compound 1.265 µM): 0.18
relative viability ([2]; first compound 4 µM): 0.114
relative viability ([3]; first compound 0.04 µM): 0.0582
relative viability ([3]; first compound 0.1265 µM): 0.0551
relative viability ([3]; first compound 0.4 µM): 0.0502
relative viability ([3]; first compound 1.265 µM): 0.0449
relative viability ([3]; first compound 4 µM): 0.0449
relative viability ([4]; first compound 0.001 µM): 0.417
relative viability ([4]; first compound 0.003162 µM): 0.416
relative viability ([4]; first compound 0.01 µM): 0.466
relative viability ([4]; first compound 0.03162 µM): 0.415
relative viability ([4]; first compound 0.1 µM): 0.083

NCI-H520
relative viability ([1]; first compound 0.04 µM): 1.05
relative viability ([1]; first compound 0.4 µM): 0.838
relative viability ([1]; first compound 1.265 µM): 0.795
relative viability ([1]; first compound 4 µM): 0.846
relative viability ([2]; first compound 0.04 µM): 0.798
relative viability ([2]; first compound 0.1265 µM): 0.965
relative viability ([2]; first compound 0.4 µM): 0.499
relative viability ([2]; first compound 1.265 µM): 0.359
relative viability ([2]; first compound 4 µM): 0.267
relative viability ([3]; first compound 0.04 µM): 0.545
relative viability ([3]; first compound 0.1265 µM): 0.468
relative viability ([3]; first compound 0.4 µM): 0.477
relative viability ([3]; first compound 1.265 µM): 0.317
relative viability ([3]; first compound 4 µM): 0.293
relative viability ([4]; first compound 0.001 µM): 0.324
relative viability ([4]; first compound 0.003162 µM): 0.291
relative viability ([4]; first compound 0.01 µM): 0.303
relative viability ([4]; first compound 0.03162 µM): 0.378
relative viability ([4]; first compound 0.1 µM): 0.187

NCI-H596
relative viability ([1]; first compound 0.04 µM): 0.489
relative viability ([1]; first compound 0.1265 µM): 0.481
relative viability ([1]; first compound 0.4 µM): 0.478
relative viability ([1]; first compound 1.265 µM): 0.509
relative viability ([1]; first compound 4 µM): 0.577
relative viability ([2]; first compound 0.04 µM): 1.12
relative viability ([2]; first compound 0.1265 µM): 1.06
relative viability ([2]; first compound 0.4 µM): 0.576
relative viability ([2]; first compound 1.265 µM): 0.954
relative viability ([2]; first compound 4 µM): 0.783
relative viability ([3]; first compound 0.04 µM): 0.582
relative viability ([3]; first compound 0.1265 µM): 0.456
relative viability ([3]; first compound 0.4 µM): 0.338
relative viability ([3]; first compound 1.265 µM): 0.44
relative viability ([3]; first compound 4 µM): 0.484
relative viability ([4]; first compound 0.001 µM): 0.756
relative viability ([4]; first compound 0.003162 µM): 0.737
relative viability ([4]; first compound 0.01 µM): 0.655
relative viability ([4]; first compound 0.03162 µM): 0.752
relative viability ([4]; first compound 0.1 µM): 0.549
